Measurements: PubChem BioAssay AID1963849 (Molecular Pharmacology Branch, DTP, NCI, 2024)

Tested on: 299254-011-R-J1-PDC complex spheroid viability
Assay: Anticancer human tumor 299254-011-R-J1-PDC patient-derived melanoma cell line growth inhibition [POLQ]
Settings: for IC50: curve of first compound; for viability, T/C: stronger effect = lower value
Method: Multicellular complex tumor spheroid response to Polymerase (POL) inhibitors (novobiocin, ART-558, RP6685) in combination with a variety of drugs and investigational agents in selected tumor cell lines
The POL inhibitors (novobiocin, ART-558, and RP6685) were evaluated both individually and in combination with standard of care and investigational anticancer small molecules within a complex spheroid model of solid tumors. . Complex spheroids include a stromal component modeled by human endothelial cells (HUVEC) and fibroblasts modeled by human mesenchymal stem cells (MSCs). The concentration ranges selected for each drug and investigational agent were based upon clinically achievable concentrations if the clinical Cmax of the agent was known.
Compounds. The drugs and investigational agents: novobiocin (NSC847541), ART-558 (NSC835418), RP-6685 (NSC848927), peposertib (NSC802822), ceralasertib (NSC780249), elimusertib (NSC800525), camonsertib (NSC841442), AZD-1390 (NSC803789), olaparib (NSC753686), talazoparib (NSC767125), rucaparib (NSC756644), sotorasib (NSC818433), MRTX-1133 (NSC836407), SN-38 (NSC673596), topotecan (NSC609699), epotoside (NSC141540), doxorubicin (NSC123127), gemcitabine (NSC613327), 5-fluorouracil (NSC19893), paclitaxel (NSC125973), vemurafenib (NSC761431), MSA-2 (NSC828583), SN-011 (NSC837082), adavosertib (NSC754352), prexasertib (NSC758257), carboplatin (NSC241240) and oxaliplatin (NSC266046), were obtained from the National Cancer Institute (NCI) Developmental Therapeutics Program Chemical Repository (21). The FDA-approved anticancer drug set is available from the Developmental Therapeutics Program at https://dtp.cancer.gov/organization/dscb/obtaining/. […] The stock solutions were prepared in dimethyl sulfoxide (DMSO, Sigma-Aldrich, St. Louis, MO, cat. D2650), except for the platinum compounds which were prepared in saline (Quality Biological, Gaithersburg, MD, cat. 114-055-101), at 800-fold the tested concentration and stored at -70 degrees C prior to their use. All drugs and investigational agents were tested over a range starting from a high concentration at or near the clinical Cmax and decreasing in half-log increments. If the clinical Cmax for an agent had not been determined, the highest concentration tested was 10 microM, except for SN-38, which was tested at a high concentration of 1 microM.
Cell Culture. All cells were maintained in an incubator at 37 degrees C and 5% CO2 with 95% humidity. The PDC lines were cultured according to standard operating procedures established by the NCI PDMR (https://pdmr.cancer.gov). Table 3 of the manuscript, lists the cell lines along with the number of the three cell types plated to form the mct-spheroids and media for tumor cell growth. After thawing, all PDC lines, except 997537-175-T-J1-PDC and 415267-285-R-J2-PDC, were cultured in Matrigel-coated flasks prepared with a working solution of 1X Ham's F-12 nutrient mix, without supplementation (Thermo Fisher Scientific, cat. 11765054), 100 U/mL penicillin-streptomycin (Thermo Fisher Scientific, cat. 15140122), and 2.5% Matrigel (Corning Inc., Corning, NY, cat. 354248) for the first three passages. The two PDC lines 997537-175-T-J1-PDC and 415267-285-R-J2-PDC were cultured on uncoated flasks. The 857933-349-R-J2-PDC line was cultured in 6C/Colon 1B media containing advanced DMEM/F-12 (Thermo Fisher Scientific, cat. 12634028), 10 mM HEPES (Thermo Fisher Scientific, cat. 15630080), 1X GlutaMAX supplement (Thermo Fisher Scientific, cat. 35050061), 0.1 mg/mL primocin (InvivoGen, San Diego, CA, cat. ant-pm-2), 10% defined fetal bovine serum, heat inactivated (HyClone Laboratories Inc., Logan, UT, cat. SH30070.03HI), 50% L-WRN conditioned media (ATCC, cat. CRL-3276), 1.25 mM N-Acetyl-L-cysteine (Sigma-Aldrich, cat. A9165), 10 mM nicotinamide (Sigma-Aldrich, cat. N0636), 1X B-27 supplement (Thermo Fisher Scientific, cat. 17504044), 1X N-2 supplement (Thermo Fisher Scientific, cat. […]

[1] = second compound 0.0316 µM, first compound 0.0316 µM
[2] = second compound 0.0316 µM, first compound 0.1 µM
[3] = second compound 0.0316 µM, first compound 0.316 µM
[4] = second compound 0.0316 µM, first compound 1 µM
[5] = second compound 0.0316 µM, first compound 3.16 µM
[6] = second compound 0.0316 µM, first compound 10 µM
[7] = second compound 0.1 µM, first compound 0.0316 µM
[8] = second compound 0.1 µM, first compound 0.1 µM
[9] = second compound 0.1 µM, first compound 0.316 µM
[10] = second compound 0.1 µM, first compound 1 µM
[11] = second compound 0.1 µM, first compound 3.16 µM
[12] = second compound 0.1 µM, first compound 10 µM
[13] = second compound 0.316 µM, first compound 0.0316 µM
[14] = second compound 0.316 µM, first compound 0.1 µM
[15] = second compound 0.316 µM, first compound 0.316 µM
[16] = second compound 0.316 µM, first compound 1 µM
[17] = second compound 0.316 µM, first compound 3.16 µM
[18] = second compound 0.316 µM, first compound 10 µM
[19] = second compound 1 µM, first compound 0.0316 µM
[20] = second compound 1 µM, first compound 0.1 µM
[21] = second compound 1 µM, first compound 0.316 µM
[22] = second compound 1 µM, first compound 1 µM
[23] = second compound 1 µM, first compound 3.16 µM
[24] = second compound 1 µM, first compound 10 µM
[25] = second compound 3.16 µM, first compound 0.0316 µM
[26] = second compound 3.16 µM, first compound 0.1 µM
[27] = second compound 3.16 µM, first compound 0.316 µM
[28] = second compound 3.16 µM, first compound 1 µM
[29] = second compound 3.16 µM, first compound 3.16 µM
[30] = second compound 3.16 µM, first compound 10 µM
[31] = second compound 10 µM, first compound 0.0316 µM
[32] = second compound 10 µM, first compound 0.1 µM
[33] = second compound 10 µM, first compound 0.316 µM
[34] = second compound 10 µM, first compound 1 µM
[35] = second compound 10 µM, first compound 3.16 µM
[36] = second compound 10 µM, first compound 10 µM
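Further: spheroids exposed to drugs for one week before measurement.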
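Wherever viability, T/C is given: percent viability relative to DMSO vehicle control taken as 100%.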

**Q.** How did the IC50 (second compound 0.0316 µM) turn out when `CC1COCCN1c1cc(C2(S(C)(=N)=O)CC2)nc(-c2ccnc3[nH]ccc23)n1` (centres undefined) + COC1C(OC(N)=O)C(O)C(Oc2ccc3c(O)c(NC(=O)c4ccc(O)c(CC=C(C)C)c4)c(=O)oc3c2C)OC1(C)C was run?
**A.** 6.05 µM

**Q.** What about the IC50 (second compound 0.1 µM) of the same compound?
**A.** 5.77 µM

**Q.** And the IC50 (second compound 0.316 µM)?
**A.** 6.98 µM

**Q.** What about the IC50 (second compound 1 µM) of the same compound?
**A.** 5.46 µM

**Q.** What about the IC50 (second compound 3.16 µM) of the same compound?
**A.** 7.19 µM

**Q.** What about the IC50 (second compound 10 µM) of the same compound?
**A.** 6.75 µM

**Q.** What about the viability, T/C [1] of the same compound?
**A.** 110%

**Q.** And the viability, T/C [2]?
**A.** 116%

**Q.** And the viability, T/C [3]?
**A.** 102%

**Q.** And the viability, T/C [4]?
**A.** 85.3%

**Q.** And the viability, T/C [5]?
**A.** 66.5%

**Q.** What about the viability, T/C [6] of the same compound?
**A.** 38.1%

**Q.** What about the viability, T/C [7] of the same compound?
**A.** 110%

**Q.** And the viability, T/C [8]?
**A.** 95%

**Q.** And the viability, T/C [9]?
**A.** 111%

**Q.** And the viability, T/C [10]?
**A.** 106%

**Q.** What about the viability, T/C [11] of the same compound?
**A.** 60.9%

**Q.** What about the viability, T/C [12] of the same compound?
**A.** 39.9%

**Q.** And the viability, T/C [13]?
**A.** 98.9%

**Q.** And the viability, T/C [14]?
**A.** 98.7%

**Q.** And the viability, T/C [15]?
**A.** 110%

**Q.** And the viability, T/C [16]?
**A.** 106%

**Q.** What about the viability, T/C [17] of the same compound?
**A.** 69.9%

**Q.** What about the viability, T/C [18] of the same compound?
**A.** 41%

**Q.** And the viability, T/C [19]?
**A.** 112%

**Q.** And the viability, T/C [20]?
**A.** 122%

**Q.** And the viability, T/C [21]?
**A.** 109%

**Q.** What about the viability, T/C [22] of the same compound?
**A.** 85.8%

**Q.** What about the viability, T/C [23] of the same compound?
**A.** 65%

**Q.** And the viability, T/C [24]?
**A.** 35.7%

**Q.** What about the viability, T/C [25] of the same compound?
**A.** 101%

**Q.** What about the viability, T/C [26] of the same compound?
**A.** 122%

**Q.** And the viability, T/C [27]?
**A.** 105%

**Q.** And the viability, T/C [28]?
**A.** 101%

**Q.** What about the viability, T/C [29] of the same compound?
**A.** 70.4%

**Q.** What about the viability, T/C [30] of the same compound?
**A.** 41.8%

**Q.** What about the viability, T/C [31] of the same compound?
**A.** 122%

**Q.** And the viability, T/C [32]?
**A.** 103%

**Q.** And the viability, T/C [33]?
**A.** 109%

**Q.** And the viability, T/C [34]?
**A.** 90.9%

**Q.** And the viability, T/C [35]?
**A.** 73.6%

**Q.** And the viability, T/C [36]?
**A.** 37.6%

**Q.** How did the IC50 (second compound 0.0316 µM) turn out when `CCCS(=O)(=O)Nc1ccc(F)c(C(=O)c2c[nH]c3ncc(-c4ccc(Cl)cc4)cc23)c1F` + COC1C(OC(N)=O)C(O)C(Oc2ccc3c(O)c(NC(=O)c4ccc(O)c(CC=C(C)C)c4)c(=O)oc3c2C)OC1(C)C was run?
**A.** > 10 µM

**Q.** What about the IC50 (second compound 0.1 µM) of the same compound?
**A.** > 10 µM

**Q.** And the IC50 (second compound 0.316 µM)?
**A.** > 10 µM

**Q.** And the IC50 (second compound 1 µM)?
**A.** > 10 µM

**Q.** And the IC50 (second compound 3.16 µM)?
**A.** > 10 µM

**Q.** What about the IC50 (second compound 10 µM) of the same compound?
**A.** > 10 µM

**Q.** What about the viability, T/C [1] of the same compound?
**A.** 116%

**Q.** What about the viability, T/C [2] of the same compound?
**A.** 94.3%

**Q.** And the viability, T/C [3]?
**A.** 107%

**Q.** What about the viability, T/C [4] of the same compound?
**A.** 136%

**Q.** What about the viability, T/C [5] of the same compound?
**A.** 107%

**Q.** What about the viability, T/C [6] of the same compound?
**A.** 69.6%

**Q.** What about the viability, T/C [7] of the same compound?
**A.** 111%

**Q.** And the viability, T/C [8]?
**A.** 97.4%

**Q.** And the viability, T/C [9]?
**A.** 118%

**Q.** And the viability, T/C [10]?
**A.** 105%

**Q.** And the viability, T/C [11]?
**A.** 123%

**Q.** And the viability, T/C [12]?
**A.** 63.8%

**Q.** And the viability, T/C [13]?
**A.** 93.6%

**Q.** And the viability, T/C [14]?
**A.** 99.2%

**Q.** What about the viability, T/C [15] of the same compound?
**A.** 120%

**Q.** And the viability, T/C [16]?
**A.** 117%

**Q.** And the viability, T/C [17]?
**A.** 121%

**Q.** What about the viability, T/C [18] of the same compound?
**A.** 68.8%

**Q.** And the viability, T/C [19]?
**A.** 94%

**Q.** What about the viability, T/C [20] of the same compound?
**A.** 98.4%

**Q.** And the viability, T/C [21]?
**A.** 99.2%

**Q.** What about the viability, T/C [22] of the same compound?
**A.** 107%

**Q.** What about the viability, T/C [23] of the same compound?
**A.** 118%

**Q.** And the viability, T/C [24]?
**A.** 67.5%

**Q.** And the viability, T/C [25]?
**A.** 108%

**Q.** And the viability, T/C [26]?
**A.** 113%

**Q.** What about the viability, T/C [27] of the same compound?
**A.** 116%

**Q.** And the viability, T/C [28]?
**A.** 126%

**Q.** And the viability, T/C [29]?
**A.** 124%

**Q.** What about the viability, T/C [30] of the same compound?
**A.** 82.8%

**Q.** What about the viability, T/C [31] of the same compound?
**A.** 106%

**Q.** And the viability, T/C [32]?
**A.** 112%

**Q.** And the viability, T/C [33]?
**A.** 110%

**Q.** What about the viability, T/C [34] of the same compound?
**A.** 118%

**Q.** And the viability, T/C [35]?
**A.** 118%

**Q.** And the viability, T/C [36]?
**A.** 83.4%
